From US20120029085A1, “STABILIZATION OF QUINOL COMPOSITION SUCH AS CATECHOLAMINE DRUGS” (priority 2010, published 2012)

How the values were obtained:
[1] = Percent protonated (RNH+) and unprotonated (RN) amine form of local anesthetics as a function of pH; assay type: physicochemical; conditions: for % RNH(+) at pH 5.0: pH 5.0, protonated form; for % RN at pH 5.0: pH 5.0, unprotonated form; for % RNH(+) at pH 6.5: pH 6.5, protonated form; for % RN at pH 6.5: pH 6.5, unprotonated form; for % RNH(+) at pH 7.4: pH 7.4, protonated form; for % RN at pH 7.4: pH 7.4, unprotonated form
Source text: According to the Henderson-Hasselbalch equation:
pH=pKa+log([A^−]/[HA]) (I)

[2] = amine group of the local anesthetic; cited from earlier work
[3] = cited from earlier work
[4] = cystine/cysteine redox couple; cited from earlier work

% RNH(+) at pH 5.0 [1] | % RN at pH 5.0 [1] | % RNH(+) at pH 6.5 [1] | % RN at pH 6.5 [1] | % RNH(+) at pH 7.4 [1] | % RN at pH 7.4 [1] | Structure (SMILES) | other results
99.99% | 0.01% | 99.60% | 0.40% | 96.93% | 3.07% | CCN(CC)CCOC(=O)c1ccc(N)cc1 [Procaine] | –
99.84% | 0.16% | 95.23% | 4.77% | 71.53% | 28.47% | CCCNC(C)C(=O)Nc1c(C)csc1C(=O)OC (stereo not drawn) [Articaine] | –
0.99% | 99.01% | 0.03% | 99.97% | 0.00% | 100.00% | CCOC(=O)c1ccc(N)cc1 [Benzocaine] | pKa (amine) [2]: 3
– | – | – | – | – | – | O=C(O)CC(O)C(=O)O (stereo not drawn) [Malate] | pKa2 ([3]; Table 3, buffer, second dissociation): 5.13
– | – | – | – | – | – | NC(=O)CN(CC(=O)O)CC(=O)O [ADA] | pKa ([3]; Table 3, buffer): 6.60
– | – | – | – | – | – | O=S(=O)(O)CCCCN1CCOCC1 [MOBS] | pKa ([3]; Table 3, buffer): 7.60
99.92% | 0.08% | 97.55% | 2.45% | 83.37% | 16.63% | CCCCN1CCCCC1C(=O)Nc1c(C)cccc1C (stereo not drawn) [Bupivacaine] | –
– | – | – | – | – | – | N[C@@H](CS)C(=O)O [cysteine] | standard reduction potential E° [4]: −0.34 V
99.92% | 0.08% | 97.55% | 2.45% | 83.37% | 16.63% | CCCN1CCCC[C@H]1C(=O)Nc1c(C)cccc1C [Ropivacaine] | –
99.80% | 0.20% | 94.06% | 5.94% | 66.61% | 33.39% | CCCN(CC)C(CC)C(=O)Nc1c(C)cccc1C (stereo not drawn) [Etidocaine] | –
– | – | – | – | – | – | CCC(CC)(C(=O)O)C(=O)O [diethylmalonic acid] | pKa (value in parentheses after the buffer name) ([3]; text list of pH buffers, b28): 7.2
99.87% | 0.13% | 96.17% | 3.83% | 75.97% | 24.03% | CCN(CC)CC(=O)Nc1c(C)cccc1C [Lidocaine] | –
– | – | – | – | – | – | O=C(O)CNC(CO)(CO)CO [Tricine] | pKa ([3]; Table 3, buffer): 8.05
99.75% | 0.25% | 92.64% | 7.36% | 61.31% | 38.69% | Cc1cccc(C)c1NC(=O)C1CCCCN1C (stereo not drawn) [Mepivacaine] | –
– | – | – | – | – | – | OCC(CO)(CO)NCCCNC(CO)(CO)CO [Bis-Tris Propane] | pKa1 ([3]; Table 3, buffer, first dissociation): 6.80
99.87% | 0.13% | 96.17% | 3.83% | 75.97% | 24.03% | CCCNC(C)C(=O)Nc1ccccc1C (stereo not drawn) [Prilocaine] | –
99.94% | 0.06% | 98.04% | 1.96% | 86.32% | 13.68% | CCCCNc1ccc(C(=O)OCCN(C)C)cc1 [Tetracaine] | –
– | – | – | – | – | – | O=S(=O)(O)CCN(CCO)CCO [BES] | pKa ([3]; Table 3, buffer): 7.09
– | – | – | – | – | – | O=S(=O)(O)CCNC(CO)(CO)CO [TES] | pKa ([3]; Table 3, buffer): 7.50
99.98% | 0.02% | 99.37% | 0.63% | 95.23% | 4.77% | CCN(CC)CCOC(=O)c1ccc(N)cc1Cl [Chloroprocaine] | pKa (amine) [2]: 8.7
99.98% | 0.02% | 99.50% | 0.50% | 96.17% | 3.83% | CCCCOc1cc(C(=O)NCCN(CC)CC)c2ccccc2n1 [Dibucaine] | pKa (amine) [2]: 8.8
